Experimental data taken from patent publication US20030022876A1, “Sustained-release analgesic compounds” (priority 2001, published 2003).

Columns and labels:
[1] = Stability (half-life) in human plasma at 37° C., HPLC analysis; type: in vitro ADME; conditions: stock solution diluted 10 fold
Procedure: (§1) This stock solution was diluted 10 fold in either 0.1 M phosphate buffer, pH 7.4, or human plasma, and the working solution was placed in a water bath at 37° C. Samples had been taken every hour for the plasma and every couple of hours for the buffer.

[2] = Stability (half-life) in 0.1 M phosphate buffer, pH 7.4, at 37° C., HPLC analysis; type: physicochemical; conditions: pH 7.4, 37° C.
Procedure: as §1

SMILES	half-life at 0.1 mg/ml [1] [h]	half-life at 0.1 mg/ml [2] [h]
CN1CC[C@]23c4c5ccc(OC(=O)Cc6ccccc6Nc6c(Cl)cccc6Cl)c4O[C@H]2[C@@H](O)C=C[C@H]3[C@H]1C5 [Inventive compound (10)]	0.35 ± 0.0167	2.5 ± 0.5
COc1ccc2cc(C(C)C(=O)OCOC(=O)Oc3ccc4c5c3O[C@H]3[C@@H](O)C=CC6[C@@H](C4)N(C)CC[C@@]563)ccc2c1 (stereo partly shown) [Inventive compound (16)]	0.0583 ± 0.01	7.6 ± 0.5
